Experimental data published in article PMC11439681, “The identification of potent dual-target monopolar spindle 1 (MPS1) and histone deacetylase 8 (HDAC8) inhibitors through pharmacophore modeling, molecular docking, molecular dynamics simulations, and biological evaluation” (Frontiers in Pharmacology, 2024).

Key:
Format in all cases: biochemical
[1] = molecular target: T1, JAK3 (Homo sapiens, UniProt P52333); experiment: In vitro selectivity assay; settings: selectivity panel
T1 construct: ICE Bioscience Inc. (contract assay provider)
Description: (§1) The inhibitory effects of compound MPH-5 on a panel of 68 kinases and other histone deacetylases were evaluated to assess the selectivity profile of MPH-5. This experiment was conducted by ICE Bioscience Inc. (Beijing, China).

[2] = molecular target: HCK (Homo sapiens, UniProt P08631); experiment: In vitro selectivity assay; settings: selectivity panel
Description: as §1

[3] = molecular target: T2, EPHA2 (Homo sapiens, UniProt P29317); experiment: In vitro selectivity assay; settings: selectivity panel
T2 construct: ICE Bioscience Inc. (assay service)
Description: as §1

[4] = molecular target: ITK (Homo sapiens, UniProt Q08881); experiment: In vitro selectivity assay; settings: selectivity panel
Description: as §1

[5] = molecular target: T3, PDGFRA (Homo sapiens, UniProt P16234); experiment: In vitro selectivity assay; settings: selectivity panel
T3 construct: ICE Bioscience Inc. (contract assay provider)
Description: as §1

[6] = molecular target: T4, LYN (Homo sapiens, UniProt P07948); experiment: In vitro selectivity assay; settings: selectivity panel
T4 construct: ICE Bioscience Inc. (contract assay provider)
Description: as §1

[7] = molecular target: T5, HDAC7 (Homo sapiens, UniProt Q8WUI4); experiment: In vitro selectivity assay; settings: selectivity panel
T5 construct: ICE Bioscience Inc. (Beijing, China), the contract lab that ran the assay
Description: as §1

[8] = molecular target: T6, SYK (Homo sapiens, UniProt P43405); experiment: In vitro selectivity assay; settings: selectivity panel
T6 construct: ICE Bioscience Inc. (contract assay provider)
Description: as §1

[9] = molecular target: T7, ABL2 (Homo sapiens, UniProt P42684); experiment: In vitro selectivity assay; settings: selectivity panel
T7 construct: ICE Bioscience Inc. (assay service)
Description: as §1

[10] = molecular target: T8, NTRK3 (Homo sapiens, UniProt Q16288); experiment: In vitro selectivity assay; settings: selectivity panel
T8 construct: ICE Bioscience Inc. (contract assay provider)
Description: as §1

[11] = molecular target: T9, NTRK2 (Homo sapiens, UniProt Q16620); experiment: In vitro selectivity assay; settings: selectivity panel
T9 construct: ICE Bioscience Inc. (contract assay provider)
Description: as §1

[12] = molecular target: T10, EPHA1 (Homo sapiens, UniProt P21709); experiment: In vitro selectivity assay; settings: selectivity panel
T10 construct: ICE Bioscience Inc. (assay service)
Description: as §1

[13] = molecular target: PIM1 (Homo sapiens, UniProt P11309); experiment: In vitro selectivity assay; settings: selectivity panel
Description: as §1

[14] = molecular target: T11, AXL (Homo sapiens, UniProt P30530); experiment: In vitro selectivity assay; settings: selectivity panel
T11 construct: ICE Bioscience Inc. (assay service)
Description: as §1

[15] = molecular target: T12, HDAC3 (Homo sapiens, UniProt O15379); experiment: In vitro selectivity assay; settings: selectivity panel
T12 construct: ICE Bioscience Inc. (contract assay provider)
Description: as §1

[16] = molecular target: FGR (Homo sapiens, UniProt P09769); experiment: In vitro selectivity assay; settings: selectivity panel
Description: as §1

[17] = molecular target: T13, HDAC4 (Homo sapiens, UniProt P56524); experiment: In vitro selectivity assay; settings: selectivity panel
T13 construct: ICE Bioscience Inc. (contract assay provider)
Description: as §1

[18] = molecular target: RAF1 (Homo sapiens, UniProt P04049); experiment: In vitro selectivity assay; settings: selectivity panel
Description: as §1

[19] = molecular target: FYN (Homo sapiens, UniProt P06241); experiment: In vitro selectivity assay; settings: selectivity panel
Description: as §1

[20] = molecular target: JAK1 (Homo sapiens, UniProt P23458); experiment: In vitro selectivity assay; settings: selectivity panel
Description: as §1

[21] = molecular target: T14, EPHB2 (Homo sapiens, UniProt P29323); experiment: In vitro selectivity assay; settings: selectivity panel
T14 construct: ICE Bioscience Inc. (assay service)
Description: as §1

[22] = molecular target: T15, RET (Homo sapiens, UniProt P07949); experiment: In vitro selectivity assay; settings: selectivity panel
T15 construct: ICE Bioscience Inc. (contract assay provider)
Description: as §1

[23] = molecular target: ERBB2 (Homo sapiens, UniProt P04626); experiment: In vitro selectivity assay; settings: selectivity panel
Description: as §1

[24] = molecular target: INSRR (Homo sapiens, UniProt P14616); experiment: In vitro selectivity assay; settings: selectivity panel
Description: as §1

[25] = molecular target: FGFR3 (Homo sapiens, UniProt P22607); experiment: In vitro selectivity assay; settings: selectivity panel
FGFR3, sequence (P22607 23-806): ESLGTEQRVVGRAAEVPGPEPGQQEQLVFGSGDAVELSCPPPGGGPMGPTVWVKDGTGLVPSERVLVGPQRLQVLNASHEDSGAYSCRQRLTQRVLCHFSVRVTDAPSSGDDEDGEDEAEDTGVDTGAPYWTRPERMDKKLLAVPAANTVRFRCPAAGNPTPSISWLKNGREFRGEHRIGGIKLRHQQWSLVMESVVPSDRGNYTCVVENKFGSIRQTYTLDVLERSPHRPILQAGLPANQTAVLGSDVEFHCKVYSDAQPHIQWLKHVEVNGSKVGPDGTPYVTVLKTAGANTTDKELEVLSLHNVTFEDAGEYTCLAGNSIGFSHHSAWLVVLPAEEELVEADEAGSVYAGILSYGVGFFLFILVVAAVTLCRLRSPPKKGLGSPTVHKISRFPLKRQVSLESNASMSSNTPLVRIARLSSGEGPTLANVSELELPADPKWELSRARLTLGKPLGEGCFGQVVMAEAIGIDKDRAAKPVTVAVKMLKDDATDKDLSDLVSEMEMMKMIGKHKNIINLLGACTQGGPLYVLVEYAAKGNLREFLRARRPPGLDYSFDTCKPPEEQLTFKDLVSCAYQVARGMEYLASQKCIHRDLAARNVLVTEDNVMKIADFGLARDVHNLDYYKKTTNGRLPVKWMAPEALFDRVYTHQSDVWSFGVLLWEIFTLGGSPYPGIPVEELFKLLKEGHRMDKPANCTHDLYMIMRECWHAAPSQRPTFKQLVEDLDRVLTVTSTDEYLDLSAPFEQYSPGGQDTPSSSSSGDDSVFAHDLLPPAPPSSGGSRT
Description: as §1

[26] = molecular target: T16, LTK (Homo sapiens, UniProt P29376); experiment: In vitro selectivity assay; settings: selectivity panel
T16 construct: ICE Bioscience Inc. (contract assay provider)
Description: as §1

[27] = molecular target: T17, BLK (Homo sapiens, UniProt P51451); experiment: In vitro selectivity assay; settings: selectivity panel
T17 construct: ICE Bioscience Inc. (assay service)
Description: as §1

[28] = molecular target: T18, EPHA8 (Homo sapiens, UniProt P29322); experiment: In vitro selectivity assay; settings: selectivity panel
T18 construct: ICE Bioscience Inc. (assay service)
Description: as §1

[29] = molecular target: T19, MERTK (Homo sapiens, UniProt Q12866); experiment: In vitro selectivity assay; settings: selectivity panel
T19 construct: ICE Bioscience Inc. (contract assay provider)
Description: as §1

[30] = molecular target: T20, BMX (Homo sapiens, UniProt P51813); experiment: In vitro selectivity assay; settings: selectivity panel
T20 construct: ICE Bioscience Inc. (assay service)
T20 sequence (P51813 whole entry): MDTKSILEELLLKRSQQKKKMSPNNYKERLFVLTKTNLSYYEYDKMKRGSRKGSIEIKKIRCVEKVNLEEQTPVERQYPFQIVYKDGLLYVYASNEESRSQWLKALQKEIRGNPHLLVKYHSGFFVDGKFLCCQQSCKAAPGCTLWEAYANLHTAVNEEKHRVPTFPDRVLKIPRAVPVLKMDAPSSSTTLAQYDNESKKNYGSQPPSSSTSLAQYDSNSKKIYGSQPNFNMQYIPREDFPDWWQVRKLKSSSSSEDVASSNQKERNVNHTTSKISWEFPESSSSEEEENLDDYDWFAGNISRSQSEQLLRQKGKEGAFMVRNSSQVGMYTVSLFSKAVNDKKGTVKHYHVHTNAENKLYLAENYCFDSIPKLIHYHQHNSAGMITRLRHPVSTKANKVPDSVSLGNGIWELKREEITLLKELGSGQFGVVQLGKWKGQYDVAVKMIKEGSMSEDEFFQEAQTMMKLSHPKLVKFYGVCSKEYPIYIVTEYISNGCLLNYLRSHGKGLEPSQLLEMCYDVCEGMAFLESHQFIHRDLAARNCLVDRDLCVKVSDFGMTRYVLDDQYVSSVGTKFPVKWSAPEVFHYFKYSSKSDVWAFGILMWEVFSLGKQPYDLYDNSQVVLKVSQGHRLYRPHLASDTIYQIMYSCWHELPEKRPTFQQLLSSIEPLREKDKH
Description: as §1

[31] = molecular target: ROS1 (Homo sapiens, UniProt P08922); experiment: In vitro selectivity assay; settings: selectivity panel
Description: as §1

[32] = molecular target: T21, DDR2 (Homo sapiens, UniProt Q16832); experiment: In vitro selectivity assay; settings: selectivity panel
T21 construct: ICE Bioscience Inc. (assay service)
Description: as §1

[33] = molecular target: T22, EPHB1 (Homo sapiens, UniProt P54762); experiment: In vitro selectivity assay; settings: selectivity panel
T22 construct: ICE Bioscience Inc. (assay service)
Description: as §1

[34] = molecular target: ERBB4 (Homo sapiens, UniProt Q15303); experiment: In vitro selectivity assay; settings: selectivity panel
Description: as §1

[35] = molecular target: JAK2 (Homo sapiens, UniProt O60674); experiment: In vitro selectivity assay; settings: selectivity panel
JAK2, sequence (O60674 whole entry): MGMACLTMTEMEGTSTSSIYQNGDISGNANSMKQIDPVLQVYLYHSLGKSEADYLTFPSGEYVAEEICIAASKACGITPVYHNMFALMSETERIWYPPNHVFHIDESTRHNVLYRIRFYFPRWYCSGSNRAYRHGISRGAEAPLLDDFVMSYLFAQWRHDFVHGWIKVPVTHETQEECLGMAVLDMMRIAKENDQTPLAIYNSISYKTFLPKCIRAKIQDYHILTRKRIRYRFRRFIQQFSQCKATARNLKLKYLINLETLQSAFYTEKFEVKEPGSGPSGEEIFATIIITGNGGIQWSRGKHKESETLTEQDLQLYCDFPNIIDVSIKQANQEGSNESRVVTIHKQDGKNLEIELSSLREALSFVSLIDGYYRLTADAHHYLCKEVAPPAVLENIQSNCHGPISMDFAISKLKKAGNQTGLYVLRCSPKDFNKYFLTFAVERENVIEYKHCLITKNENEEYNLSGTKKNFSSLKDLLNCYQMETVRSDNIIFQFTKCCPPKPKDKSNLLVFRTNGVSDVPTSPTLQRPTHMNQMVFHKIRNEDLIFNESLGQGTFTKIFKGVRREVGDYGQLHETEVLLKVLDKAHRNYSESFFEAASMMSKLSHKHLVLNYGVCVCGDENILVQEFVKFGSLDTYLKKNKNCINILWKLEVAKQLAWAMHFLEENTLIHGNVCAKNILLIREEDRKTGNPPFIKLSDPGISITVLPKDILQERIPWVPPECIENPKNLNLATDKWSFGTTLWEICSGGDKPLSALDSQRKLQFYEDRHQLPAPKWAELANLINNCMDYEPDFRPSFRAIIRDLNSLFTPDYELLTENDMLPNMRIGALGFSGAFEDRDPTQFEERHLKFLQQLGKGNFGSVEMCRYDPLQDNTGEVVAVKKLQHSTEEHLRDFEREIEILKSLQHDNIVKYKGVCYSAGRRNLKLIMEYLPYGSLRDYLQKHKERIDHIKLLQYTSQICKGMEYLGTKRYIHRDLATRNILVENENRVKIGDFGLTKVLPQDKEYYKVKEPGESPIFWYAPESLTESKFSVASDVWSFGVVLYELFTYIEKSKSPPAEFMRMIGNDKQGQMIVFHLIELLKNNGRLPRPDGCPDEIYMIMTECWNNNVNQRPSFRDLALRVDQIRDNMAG
Description: as §1

[36] = molecular target: T23, MET (Homo sapiens, UniProt P08581); experiment: In vitro selectivity assay; settings: selectivity panel
T23 construct: ICE Bioscience Inc. (contract assay provider)
T23 sequence (P08581 25-1390): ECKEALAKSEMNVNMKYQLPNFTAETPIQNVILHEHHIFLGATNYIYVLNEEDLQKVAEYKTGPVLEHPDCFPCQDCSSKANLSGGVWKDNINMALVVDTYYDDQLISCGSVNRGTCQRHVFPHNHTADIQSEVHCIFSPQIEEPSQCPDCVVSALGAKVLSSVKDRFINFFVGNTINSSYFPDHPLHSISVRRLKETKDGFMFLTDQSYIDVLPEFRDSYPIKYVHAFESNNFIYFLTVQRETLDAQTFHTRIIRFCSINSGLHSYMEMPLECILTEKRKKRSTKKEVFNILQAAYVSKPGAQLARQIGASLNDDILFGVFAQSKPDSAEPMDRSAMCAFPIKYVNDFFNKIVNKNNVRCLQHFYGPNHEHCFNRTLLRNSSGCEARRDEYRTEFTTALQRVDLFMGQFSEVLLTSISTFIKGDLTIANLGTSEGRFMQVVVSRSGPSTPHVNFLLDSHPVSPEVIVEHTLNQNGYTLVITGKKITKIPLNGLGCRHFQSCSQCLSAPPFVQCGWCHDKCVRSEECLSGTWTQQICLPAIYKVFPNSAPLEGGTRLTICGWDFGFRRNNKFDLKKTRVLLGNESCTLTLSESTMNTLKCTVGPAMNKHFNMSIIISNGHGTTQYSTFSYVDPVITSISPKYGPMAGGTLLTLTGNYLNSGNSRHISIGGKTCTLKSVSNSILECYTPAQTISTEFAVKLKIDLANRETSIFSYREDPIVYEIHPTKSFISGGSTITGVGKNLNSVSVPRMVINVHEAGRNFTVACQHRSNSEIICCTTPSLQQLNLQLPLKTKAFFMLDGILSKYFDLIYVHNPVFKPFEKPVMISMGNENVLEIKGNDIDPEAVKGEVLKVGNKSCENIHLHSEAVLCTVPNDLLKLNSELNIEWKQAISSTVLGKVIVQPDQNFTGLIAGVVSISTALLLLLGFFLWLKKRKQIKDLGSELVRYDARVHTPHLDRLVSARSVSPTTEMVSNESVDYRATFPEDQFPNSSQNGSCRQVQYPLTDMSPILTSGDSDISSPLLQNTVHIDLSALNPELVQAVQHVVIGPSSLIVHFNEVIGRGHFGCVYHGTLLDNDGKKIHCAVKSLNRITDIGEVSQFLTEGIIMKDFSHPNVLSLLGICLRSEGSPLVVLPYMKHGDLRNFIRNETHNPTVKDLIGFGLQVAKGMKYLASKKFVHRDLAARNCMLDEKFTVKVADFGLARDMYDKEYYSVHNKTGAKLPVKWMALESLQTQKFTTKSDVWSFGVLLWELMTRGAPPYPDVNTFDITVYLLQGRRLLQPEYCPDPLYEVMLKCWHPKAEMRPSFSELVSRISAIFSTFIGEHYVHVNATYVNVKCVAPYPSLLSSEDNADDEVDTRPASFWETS
Description: as §1

[37] = molecular target: T24, CDK2 (Homo sapiens, UniProt P24941); experiment: In vitro selectivity assay; settings: selectivity panel
T24 construct: ICE Bioscience Inc. (assay service)
Description: as §1

[38] = molecular target: FRK (Homo sapiens, UniProt P42685); experiment: In vitro selectivity assay; settings: selectivity panel
Description: as §1

[39] = molecular target: FGFR2 (Homo sapiens, UniProt P21802); experiment: In vitro selectivity assay; settings: selectivity panel
Description: as §1

[40] = molecular target: IGF1R (Homo sapiens, UniProt P08069); experiment: In vitro selectivity assay; settings: selectivity panel
Description: as §1

[41] = molecular target: T25, DDR1 (Homo sapiens, UniProt Q08345); experiment: In vitro selectivity assay; settings: selectivity panel
T25 construct: ICE Bioscience Inc. (assay service)
Description: as §1

[42] = molecular target: T26, EPHA4 (Homo sapiens, UniProt P54764); experiment: In vitro selectivity assay; settings: selectivity panel
T26 construct: ICE Bioscience Inc. (assay service)
T26 sequence (P54764 20-986): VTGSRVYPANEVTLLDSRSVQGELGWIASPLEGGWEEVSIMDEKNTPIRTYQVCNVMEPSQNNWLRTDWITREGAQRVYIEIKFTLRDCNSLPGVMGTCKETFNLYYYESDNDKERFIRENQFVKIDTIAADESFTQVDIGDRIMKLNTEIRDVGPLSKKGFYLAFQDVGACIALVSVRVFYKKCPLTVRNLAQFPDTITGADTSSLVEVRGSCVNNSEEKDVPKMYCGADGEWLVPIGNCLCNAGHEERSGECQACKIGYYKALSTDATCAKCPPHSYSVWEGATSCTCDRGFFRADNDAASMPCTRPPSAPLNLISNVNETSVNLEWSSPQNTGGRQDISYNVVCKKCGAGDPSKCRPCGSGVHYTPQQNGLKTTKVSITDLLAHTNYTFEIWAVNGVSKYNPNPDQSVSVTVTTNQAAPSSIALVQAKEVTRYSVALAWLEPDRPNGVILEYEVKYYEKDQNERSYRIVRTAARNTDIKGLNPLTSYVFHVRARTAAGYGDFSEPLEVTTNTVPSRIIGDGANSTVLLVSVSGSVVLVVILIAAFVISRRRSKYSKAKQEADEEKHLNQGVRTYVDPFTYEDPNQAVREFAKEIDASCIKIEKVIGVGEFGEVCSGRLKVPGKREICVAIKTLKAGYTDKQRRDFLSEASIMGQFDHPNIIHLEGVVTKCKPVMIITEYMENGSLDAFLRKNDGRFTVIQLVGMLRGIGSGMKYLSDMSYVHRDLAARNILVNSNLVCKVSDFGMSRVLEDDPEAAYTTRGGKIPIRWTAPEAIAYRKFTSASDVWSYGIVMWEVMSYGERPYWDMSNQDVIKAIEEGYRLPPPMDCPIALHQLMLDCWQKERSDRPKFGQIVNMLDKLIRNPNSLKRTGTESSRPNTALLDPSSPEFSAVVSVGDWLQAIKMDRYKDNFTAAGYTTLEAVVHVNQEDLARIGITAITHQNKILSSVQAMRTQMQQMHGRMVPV
Description: as §1

[43] = test system: panel of 68 kinases and other histone deacetylases; experiment: In vitro selectivity assay, whole panel; settings: read-out: IC50 on these kinases and other histone deacetylases
Description: as §1

Measured: IC50

Cn1cc(-c2cc3cnc(Nc4ccc(-c5cncn5/C=C/C(=O)NO)cc4Cl)cc3n2C(=O)OC(C)(C)C)cn1 [MPH-5]
> 10 µM: all assays above
